Measured values published in article PMC9598469, “Analysis of Antioxidant Constituents from Ilex rotunda and Evaluation of Their Blood–Brain Barrier Permeability” (Antioxidants, 2022).
Like-named read-outs stand apart in the source and are kept apart here.

Columns and labels:
[1] = DPPH method on ELISA (96-well microplate) for isolated compounds; assay type: biochemical; conditions: compounds 2.5 to 40 μM, 30 min, 517 nm; read-out: EC50 Values (μM), DPPH radical
Description: The radical scavenging effect of 2,2-diphenyl-1-picrylhydrazyl (DPPH; Thermo Fisher Scientific, Ward Hill, MA, USA) was measured using our previous method. Briefly, 0.1 mL of each sample solution (dissolved in EtOH) was mixed with 0.1 mL of 0.2 mM DPPH and allowed to stand at RT for 30 min under shade. The absorbance at 517 nm was measured using a microplate spectrophotometer (Epoch, Biotek Instruments, Inc., Winooski, VT, USA). Ascorbic acid (100 μg/mL) (Sigma–Aldrich, Co., St. Louis, MO, USA) was used as a positive control. The percentage of DPPH reduction between the treated sample and negative control well was calculated with the following formula: %EC = (A control − A sample) * 100/(A control), where A sample was the absorbance of the sample and A control was the absorbance of untreated sample. Results are indicated as EC50, which correspond to the sample concentration (μg/mL) required to inhibition by 50% of the initial DPPH radical scavenging activity under the given experimental conditions.
(§1) An amount of 100 μL of the I. rotunda extract (1.3 mg/mL) dissolved in methanol and 100 μL of the DPPH solution (1.2 mg/mL in methanol) were mixed and incubated for 30 min at 37 °C, protected from light. After that, the mixture was filtered through a 0.22 μm filter for HPLC analysis. The control sample was prepared by mixing 100 μL methanol with 100 μL of the extract. Both mixtures were analyzed using the same established analytical methods. The outflow was monitored at 254 and 326 nm wavelength. […] The ELISA assay was performed by following procedure. A 100 μL of DPPH solution (0.2 mM) was added to 100 μL of the sample on a 96-well plate, mixed for 5 s, and reacted for 30 min under shade. The absorbance was measured at 517 nm using a microplate spectrophotometer (Epoch, Biotek Instruments, Inc., Winooski, VT, USA). […] Ascorbic acid (100 μg/mL) (Sigma–Aldrich, Co., St. Louis, MO, USA) was used as the positive control.

[2] = Parallel artificial membrane permeability assay for the blood–brain barrier (PAMPA-BBB); assay type: in vitro ADME; conditions: for Papp at 4 h, 1 mM: single compounds at concentration of 10 mM (stock), read-out: BBB Permeability log Pe (converted); for Cross BBB Potential: single compounds at 10 mM, classification based on Könczöl et al.
Description: The PAMPA-BBB experiment was carried out according to the study by Könczöl et al.. A slightly modified version of the PAMPA-BBB was used to assess effective permeability (Pe, cm/s) of compounds of I. rotunda. Briefly, 20 μL of stock solution of I. rotunda extract (10 mg/mL in MeOH) or test compound (10 mM in MeOH) was mixed with 180 μL of phosphate buffered saline (PBS, pH 7.4, 10 mM) to obtain the starting donor solution. Subsequently, the filter membrane of the donor (top) plate (96-well polycarbonate-based filter plate, Multiscreen-IP, MAIPTR10, pore size 0.45 μm, Milipore) was coated with 5 μL of porcine polar brain lipid extract (PBLE) solution (16.0 mg PBLE + 8.0 mg cholesterol dissolved in 600.0 μL n-dodecane). Then, 150.0 μL of the filtrate was placed on the membrane. The bottom (acceptor) plate (96-well microtiter plate, Multiscreen®, MATRNPS50, Milipore) was filled with 300.0 μL buffer solution (PBS, pH 7.4, 10 mM). The donor plate was carefully located on the acceptor plate to form a “sandwich”. It was incubated at 37 °C for 4 h without direct right exposure. After incubation, PAMPA plates were separated. Concentrations of identified compounds of I. rotunda in the starting donor solution and in acceptor and donor wells were determined in triplicate based on chromatographic peak areas derived from the same established analytical methods. […] Pe=−ln1−CA(t)/Cequilibrium /A×1/VD1/VA×t where Pe is permeability in cm s^−1. A = effective filter area = f × 0.3 cm^2; VD = donor well volume = 150 μL; VA = acceptor well volume = 300 μL; t = incubation time (s) = 14,400; CA(t) = compound concentration in the acceptor well at time t; and CD(t) = compound concentration in the donor well at time t. Cequilibrium is calculated as follows: Cequilibrium=CD(t)×VD+CA(t)×VA/VD+VA

[3] = HPLC-DPPH screening: peak area reduction in I. rotunda twig extract; assay type: biochemical; conditions: between DPPH treated and untreated samples in the I. rotunda extract, untreated = 100%
Description: as §1

[4] = set-up: method as in PMID 23565574; conditions: cited from earlier work
[5] = I. rotunda extract test, t = 14,400 s

SMILES	EC50 [1]	Cross BBB Potential [2]	Reduction of the Peak Area (%) [3]	other results
O=C(/C=C/c1ccc(O)c(O)c1)O[C@@H]1[C@H](O)C[C@@](O)(C(=O)O)C[C@H]1OC(=O)/C=C/c1ccc(O)c(O)c1 [Compound 7, 4,5-Dicaffeoylquinic acid]	13.8 ± 0.24 µM	+ (log Pe > −6.0)	83.67%	Concentration of acceptor solution CA(t) [2, 5]: 6.62 µg/mL; Concentration of donor solution CD(t) [2, 5]: 287.86 µg/mL; BBB permeability (in words) ([2]; PAMPA-BBB, extract and 10 mM tests): moderate BBB permeability; Papp at 4 h, 1 mg/mL extract ([2]; PAMPA, compound within I. rotunda extract (10 mg/mL stock), pH 7.4, 37 °C, 4 h, read-out: BBB permeability log Pe (converted)): 1.58 ×10⁻⁶ cm/s; Papp at 4 h, 1 mM ([2]; PAMPA, pH 7.4, 37 °C, 4 h): 1.41 ×10⁻⁶ cm/s; Reduction of the Peak Area (%) ([3]; listed as 4,5-dicaffeoylquinic acid (7)): 83.67 ± 0.19%
O=c1ccc2ccccc2o1 [coumarin, reference compound]	–	++ (log Pe > −5.0)	–	Papp at 4 h, 1 mM ([2]; PAMPA, pH 7.4, 37 °C, 4 h): 28.8 ×10⁻⁶ cm/s
O=C(/C=C/c1ccc(O)c(O)c1)O[C@@H]1C[C@](O)(C(=O)O)C[C@@H](OC(=O)/C=C/c2ccc(O)c(O)c2)[C@H]1OC(=O)/C=C/c1ccc(O)c(O)c1 [Compound 8, 3,4,5-Tricaffeoylquinic acid]	10.9 ± 0.14 µM	- (not detected in acceptor or log Pe < −6.0)	67.25%	Reduction of the Peak Area (%) ([3]; listed as 3,4,5-tricaffeoylquinic acid (8)): 67.25 ± 1.00%
O=C(/C=C/c1ccc(O)c(O)c1)O[C@@H]1C[C@](O)(C(=O)O)C[C@@H](O)[C@H]1O [Compound 2, Chlorogenic acid]	–	- (not detected in acceptor or log Pe < −6.0)	–	BBB permeability (in words) [4]: poor permeability
O=C(O)/C=C/c1ccc(O)c(O)c1 [caffeic acid, reference compound]	–	- (not detected in acceptor or log Pe < −6.0)	–	Papp at 4 h, 1 mM ([2]; PAMPA, pH 7.4, 37 °C, 4 h): 0.000832 ×10⁻⁶ cm/s
CC(=CCOC1OC(CO)C(O)C(O)C1O)COC(=O)C=Cc1ccc(O)c(O)c1 (stereo not drawn) [Compound 4, Rotundarpenoside B]	–	- (not detected in acceptor or log Pe < −6.0)	18.99 ± 0.90%	–
COc1cc(/C=C/CO)cc(OC)c1O[C@@H]1O[C@H](CO)[C@@H](O)[C@H](O)[C@H]1O [Compound 1, Syringin]	–	- (not detected in acceptor or log Pe < −6.0)	6.98 ± 0.44%	–
C[C@@H]1O[C@@H](OC[C@H]2O[C@@H](Oc3c(-c4ccc(O)c(O)c4)oc4cc(O)cc(O)c4c3=O)[C@H](O)[C@@H](O)[C@@H]2O)[C@H](O)[C@H](O)[C@H]1O [Compound 3, Rutin]	–	- (not detected in acceptor or log Pe < −6.0)	21.45 ± 0.90%	BBB permeability (in words) [4]: poor permeability
O=C(C=Cc1ccc(O)c(O)c1)OC1CC(O)(C(=O)O)CC(O)C1OC(=O)C=Cc1ccc(O)c(O)c1 (stereo not drawn) [Compound 5, 3,4-Dicaffeoylquinic acid]	–	- (not detected in acceptor or log Pe < −6.0)	45.24 ± 0.67%	–
O=C1O[C@H]([C@@H](O)CO)C(O)=C1O [Ascorbic acid, reference compound]	22.6 ± 0.77 µM	–	–	–
O=C(/C=C/c1ccc(O)c(O)c1)O[C@@H]1C[C@](O)(C(=O)O)C[C@@H](OC(=O)/C=C/c2ccc(O)c(O)c2)[C@H]1O [Compound 6, 3,5-Dicaffeoylquinic acid]	10.88 ± 0.04 µM	- (not detected in acceptor or log Pe < −6.0)	58.88%	Reduction of the Peak Area (%) ([3]; listed as 3,5-dicaffeoylquinic acid (6)): 58.88 ± 0.44%
